# Biological target: T1, Human recombinant MetAP2 (Homo sapiens, UniProt P50579)
# T1 construct: made in house; host or cells: Sf9 insect cells
# Test: recombinant human MetAP2 inhibition assay (MAS substrate, amino acid oxidase/Amplex red fluorescence)
# Format: biochemical
# Settings: manganese enzyme, 30 minutes at 25° C., pH 7.5, 0.75 mM MAS substrate, 1% DMSO
# Experimental: Compounds are tested for their capacity to inhibit recombinant human MetAP2 activity using the following assay.
# Human recombinant MetAP2 expressed in Sf9 cells followed by affinity purification and EDTA treatment to remove endogenous active site cation was dialysed against MnCl2 to produce the manganese enzyme used in the assay. The assay was carried out for 30 minutes at 25° C. in 50 mM HEPES buffer containing 100 mM NaCl, at pH 7.5. The presence of 0.75 mM Methionine-Alanine-Serine (MAS) substrate and 50 μg/mL amino acid oxidase using a dilution of purified MetAP2 gives >3-fold signal:noise. Cleavage of the substrate by MetAP2 and oxidation of free methionine by amino acid oxidase was detected and quantified using fluorescence generated by Amplex red (10-acetyl-3,7-dihydroxyphenoxazine) in combination with horseradish peroxidase which detects H2O2 released during the oxidation step. The fluorescent signal was detected using a multiwell fluorimeter. Compounds were diluted in DMSO prior to addition to assay buffer, the final DMSO concentration in the assay being 1%.
# The IC50 is defined as the concentration at which a given compound achieves 50% inhibition of control. IC50 values are calculated using the XLfit software package (version 2.0.5).
# T1 sequence (P50579 whole entry): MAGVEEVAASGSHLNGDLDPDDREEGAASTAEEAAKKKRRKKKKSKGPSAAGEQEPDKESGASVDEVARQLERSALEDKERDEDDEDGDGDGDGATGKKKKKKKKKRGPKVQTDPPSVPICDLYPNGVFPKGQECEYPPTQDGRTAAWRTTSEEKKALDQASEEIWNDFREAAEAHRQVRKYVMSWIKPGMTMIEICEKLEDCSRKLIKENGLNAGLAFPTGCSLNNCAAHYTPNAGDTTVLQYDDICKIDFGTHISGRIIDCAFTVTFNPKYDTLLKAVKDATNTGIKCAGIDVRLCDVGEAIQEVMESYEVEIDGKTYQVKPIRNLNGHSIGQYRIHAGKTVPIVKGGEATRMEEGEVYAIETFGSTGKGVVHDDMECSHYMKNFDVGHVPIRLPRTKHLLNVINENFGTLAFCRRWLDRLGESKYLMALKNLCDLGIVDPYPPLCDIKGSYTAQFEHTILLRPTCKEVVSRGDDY
row,Structure (SMILES),IC50
1,"CCN(CC)C/C=C\c1cc(F)ccc1S(=O)(=O)Cc1ccc2c(c1C(=O)O)OC[C@H]1C[C@@H]21 (racemic) [Example 1, Cis-(1aRS,7bSR)-5-[2-((Z)-3-diethylaminoprop-1-enyl)-4-fluoro-benzenesulfonylmethyl]-1,1a,2,7b-tetrahydrocyclopropa[c]chromene-4-carboxylic acid]",> 100 nM
2,CCN(CC)C/C=C\c1cc(F)ccc1S(=O)(=O)Cc1ccc2c(c1C(=O)O)OC[C@@H]1C[C@H]21 [Example 2],> 100 nM

# — patent US9440943B2, “Tricyclic sulfone compounds and methods of making and using same” (Zafgen, Inc., priority 2012, dated 2016)
